Test results published in PMC9285882, “A mass spectrometry‐based non‐radioactive differential radial capillary action of ligand assay (DRaCALA) to assess ligand binding to proteins” (Journal of Mass Spectrometry, 2022).

What was measured:
Assay type in all cases: biochemical
YcgR = target: T1, YcgR (Escherichia coli, UniProt P76010); assay: DRaCALA, MALDI-TOF MS read-out; conditions: cell lysate; 10 mM Tris pH 8.0, 100 mM NaCl, 5 mM MgCl2; room temperature
T1 construct: cloned in pBAD30, expressed in E. coli Top10, whole cell lysate
T1 sequence (P76010 1-244): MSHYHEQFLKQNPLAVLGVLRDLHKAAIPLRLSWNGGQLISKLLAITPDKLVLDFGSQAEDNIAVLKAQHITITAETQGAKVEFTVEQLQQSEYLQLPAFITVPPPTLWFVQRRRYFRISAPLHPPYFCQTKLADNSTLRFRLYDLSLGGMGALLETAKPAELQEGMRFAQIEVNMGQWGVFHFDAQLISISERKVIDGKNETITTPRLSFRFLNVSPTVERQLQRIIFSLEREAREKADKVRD

BcsE = BcsE (Escherichia coli, UniProt P37657); assay: DRaCALA, MALDI-TOF MS read-out; conditions: cell lysate; 10 mM Tris pH 8.0, 100 mM NaCl, 5 mM MgCl2; room temperature
YciRFec101 = target: T2, YciRFec101 (Escherichia coli, UniProt P77334); assay: DRaCALA, MALDI-TOF MS and […] read-out; conditions: cell lysate; 10 mM Tris pH 8.0, 100 mM NaCl, 5 mM MgCl2 (MALDI) or MgSO4 (32P); room temperature; labelled compound in 32P assay
T2 construct: gene pdeR; full-length GGDEF/EAL protein, cloned in pBAD30, expressed in E. coli Top10, whole cell lysate
T2 sequence (P77334 whole entry): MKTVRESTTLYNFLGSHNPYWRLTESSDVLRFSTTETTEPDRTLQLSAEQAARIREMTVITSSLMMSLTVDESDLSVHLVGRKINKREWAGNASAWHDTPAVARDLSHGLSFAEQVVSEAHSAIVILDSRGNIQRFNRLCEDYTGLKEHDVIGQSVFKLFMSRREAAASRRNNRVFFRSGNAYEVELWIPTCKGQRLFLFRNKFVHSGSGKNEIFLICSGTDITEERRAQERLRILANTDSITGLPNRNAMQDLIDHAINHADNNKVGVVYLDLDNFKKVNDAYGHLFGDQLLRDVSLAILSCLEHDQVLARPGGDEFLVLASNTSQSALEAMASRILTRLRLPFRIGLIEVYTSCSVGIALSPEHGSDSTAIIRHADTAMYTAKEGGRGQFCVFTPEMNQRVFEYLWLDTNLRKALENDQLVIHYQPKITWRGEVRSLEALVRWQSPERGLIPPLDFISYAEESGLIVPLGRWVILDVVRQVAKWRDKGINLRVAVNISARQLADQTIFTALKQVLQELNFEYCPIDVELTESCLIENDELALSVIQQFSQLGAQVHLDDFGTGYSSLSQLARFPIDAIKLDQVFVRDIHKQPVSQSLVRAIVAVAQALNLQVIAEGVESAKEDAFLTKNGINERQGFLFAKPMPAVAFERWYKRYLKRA

BcsE, sequence (P37657 whole entry): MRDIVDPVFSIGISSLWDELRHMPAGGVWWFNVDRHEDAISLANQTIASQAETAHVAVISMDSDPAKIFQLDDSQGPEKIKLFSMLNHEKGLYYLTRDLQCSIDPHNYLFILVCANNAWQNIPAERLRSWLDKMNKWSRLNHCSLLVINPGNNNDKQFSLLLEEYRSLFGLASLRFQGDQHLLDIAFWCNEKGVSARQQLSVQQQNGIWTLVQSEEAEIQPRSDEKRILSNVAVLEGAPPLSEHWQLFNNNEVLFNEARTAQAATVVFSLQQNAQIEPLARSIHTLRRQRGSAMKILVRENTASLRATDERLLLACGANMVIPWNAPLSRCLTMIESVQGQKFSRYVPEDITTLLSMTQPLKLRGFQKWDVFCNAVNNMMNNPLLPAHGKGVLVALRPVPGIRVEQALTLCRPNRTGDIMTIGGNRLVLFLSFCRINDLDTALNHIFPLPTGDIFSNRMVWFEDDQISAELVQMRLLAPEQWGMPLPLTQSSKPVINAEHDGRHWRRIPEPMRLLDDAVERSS

Nc1nc2c(ncn2[C@@H]2O[C@@H]3COP(=O)(O)O[C@H]4[C@@H](O)[C@H](n5cnc6c(=O)[nH]c(N)nc65)O[C@@H]4COP(=O)(O)O[C@H]3[C@H]2O)c(=O)[nH]1 [cyclic di-GMP]
DRaCALA, MALDI-TOF MS read-out (YcgR): cell lysates expressing the cyclic di‐GMP receptors and incubated with cyclic di‐GMP showed higher counts
DRaCALA, MALDI-TOF MS read-out (BcsE): cell lysates expressing the cyclic di‐GMP receptors and incubated with cyclic di‐GMP showed higher counts
DRaCALA, MALDI-TOF MS and 32P read-out (YciRFec101): YciRFec101 showed increased binding to c‐di‐GMP, while mut1 and mut2 were near vector control
